Test results from ChEMBL document CHEMBL1133206, “Antifungal rapamycin analogues with reduced immunosuppressive activity” (Bioorg Med Chem Lett, 2000).
≈ marks a conversion by molar mass, not a printed value.

Legend:
[1] = tested on: Candida albicans; experiment: In vitro antifungal activity against Candida albicans (CA 10231); assay type: functional
[2] = tested on: Pichia kudriavzevii; experiment: In vitro antifungal activity against Candida krusei (CK 28838); assay type: functional
[3] = tested on: Candida albicans; experiment: Compound was screened in vitro for antifungal activity against Candida albicans (CA 38247); assay type: functional
[4] = tested on: Candida albicans; experiment: Compound was screened in vitro for antifungal activity against Candida albicans (CA 442); assay type: functional
[5] = tested on: Candida albicans; experiment: In vitro for antifungal activity against Candida albicans (CA 579a); assay type: functional
[6] = tested on: Candida albicans; experiment: Compound was screened in vitro for antifungal activity against Candida albicans (CA 62376); assay type: functional
[7] = tested on: Candida tropicalis; experiment: In vitro antifungal activity against Candida tropicalis (CT 750); assay type: functional
[8] = species on record: Homo sapiens; experiment: Inhibitory activity against human concanavalin-A proliferation assay; assay type: functional
[9] = tested on: Aspergillus niger; experiment: In vitro antifungal activity at a minimum inhibitory concentration (~100 ug/mL) against Aspergillus niger; Not affected; assay type: functional; conditions: Aspergillus niger; read-out: MIC
[10] = tested on: Candida albicans; experiment: In vitro antifungal activity against Candida albicans (CA 38247); Weak; assay type: functional, organism-based
[11] = tested on: Candida albicans; experiment: In vitro antifungal activity against Candida albicans (CA 442); Weak; assay type: functional, organism-based
[12] = tested on: Candida albicans; experiment: In vitro antifungal activity against Candida albicans (CA 62376); Weak; assay type: functional, organism-based
[13] = tested on: Candida albicans; experiment: In vitro antifungal activity against […] (CA 34140); Not affected.; assay type: functional
[14] = tested on: Nakaseomyces glabratus; experiment: In vitro antifungal activity against Torulopsis glabrata (TG 15545); assay type: functional

Row | SMILES | MIC [1] [µg/mL] | MIC [2] [µg/mL] | MIC [3] [µg/mL] | MIC [4] [µg/mL] | MIC [5] [µg/mL] | MIC [6] [µg/mL] | MIC [7] [µg/mL] | IC50 [8] [nM] | MIC [9] [µg/mL] | MIC [10] | MIC [11] | MIC [12] | MIC [13] [µg/mL] | MIC [14] [µg/mL]
1 | CO[C@H]1C[C@@H]2CC[C@@H](C)[C@@](O)(O2)C(=O)C(=O)N2CCCC[C@H]2C(=O)O[C@H]([C@H](C)C[C@@H]2CCC(O)[C@H](OC)C2)CC(=O)[C@H](C)/C=C(\C)[C@@H](O)[C@@H](OC)C(=O)[C@H](C)C[C@H](C)CCCC/C=C/1C (single isomer, unassigned; 3) | 1.56 (≈ 1.7 µM) | 0.78 (≈ 0.849 µM) | 1.56 (≈ 1.7 µM) | 1.56 (≈ 1.7 µM) | 1.56 (≈ 1.7 µM) | 0.78 (≈ 0.849 µM) | 1.56 (≈ 1.7 µM) | 3400 |  |  |  |  |  | 
2 | CO[C@H]1C[C@@H]2CC[C@@H](C)[C@@](O)(O2)C(=O)C(=O)N2CCCC[C@H]2C(=O)O[C@H]([C@H](C)C[C@@H]2CC[C@@H](OC(=O)N3CCCCC3)[C@H](OC)C2)CC(=O)[C@H](C)/C=C(\C)[C@@H](O)[C@@H](OC)C(=O)[C@H](C)C[C@H](C)CCCC/C=C/1C | > 100 | > 100 | > 100 | > 100 | > 100 |  | > 100 |  |  |  |  |  |  | 
3 | CCCCOC(=O)N(O)[C@H]1C[C@@H]2CC[C@@H](C)[C@@](O)(O2)C(=O)C(=O)N2CCCC[C@H]2C(=O)O[C@H]([C@H](C)C[C@@H]2CC[C@@H](O)[C@H](OC)C2)CC(=O)[C@H](C)/C=C(\C)[C@@H](O)[C@@H](OC)C(=O)[C@H](C)C[C@H](C)/C=C/C=C/C=C/1C | 12.5 (≈ 12.3 µM) | 1.56 (≈ 1.54 µM) |  |  | 12.5 (≈ 12.3 µM) |  | 12.5 (≈ 12.3 µM) | 523 | ~100 (≈ 98.5 µM) | Weak | Weak | Weak | ~100 (≈ 98.5 µM) | 1.56 (≈ 1.54 µM)
4 | CO[C@@H]1C[C@H](C[C@@H](C)[C@@H]2CC(=O)[C@H](C)/C=C(\C)[C@@H](O)[C@@H](OC)C(=O)[C@H](C)C[C@H](C)/C=C/C=C/C=C(\C)[C@@H](N(O)C(N)=O)C[C@@H]3CC[C@@H](C)[C@@](O)(O3)C(=O)C(=O)N3CCCC[C@H]3C(=O)O2)CC[C@H]1O | 100 (≈ 104 µM) | 3.12 (≈ 3.26 µM) |  |  | 100 (≈ 104 µM) |  | 12.5 (≈ 13 µM) | 758 | ~100 (≈ 104 µM) | Weak | Weak | Weak | ~100 (≈ 104 µM) | 1.56 (≈ 1.63 µM)
5 | CO[C@@H]1C[C@H](C[C@@H](C)[C@@H]2CC(=O)[C@H](C)/C=C(\C)[C@@H](O)[C@@H](OC)C(=O)[C@H](C)C[C@H](C)/C=C/C=C/C=C(\C)[C@H](N(OC)C(=O)N(C)C)C[C@@H]3CC[C@@H](C)[C@@](O)(O3)C(=O)C(=O)N3CCCC[C@H]3C(=O)O2)CC[C@H]1O | 50 (≈ 50 µM) | 1.56 (≈ 1.56 µM) |  |  | 50 (≈ 50 µM) |  | 50 (≈ 50 µM) | 6.5 | ~100 (≈ 100 µM) | Weak | Weak | Weak | ~100 (≈ 100 µM) | 1.56 (≈ 1.56 µM)
6 | CCCOC(=O)N(O)[C@H]1C[C@@H]2CC[C@@H](C)[C@@](O)(O2)C(=O)C(=O)N2CCCC[C@H]2C(=O)O[C@H]([C@H](C)C[C@@H]2CC[C@@H](O)[C@H](OC)C2)CC(=O)[C@H](C)/C=C(\C)[C@@H](O)[C@@H](OC)C(=O)[C@H](C)C[C@H](C)/C=C/C=C/C=C/1C | 12.5 (≈ 12.5 µM) | 0.78 (≈ 0.779 µM) |  |  | 12.5 (≈ 12.5 µM) |  | 6.25 (≈ 6.24 µM) | 900 | ~100 (≈ 99.9 µM) | Weak | Weak | Weak | ~100 (≈ 99.9 µM) | 1.56 (≈ 1.56 µM)
7 | CO[C@@H]1C[C@H](C[C@@H](C)[C@@H]2CC(=O)[C@H](C)/C=C(\C)[C@@H](O)[C@@H](OC)C(=O)[C@H](C)C[C@H](C)/C=C/C=C/C=C(\C)[C@H](N(O)C(=O)Oc3ccccc3)C[C@@H]3CC[C@@H](C)[C@@](O)(O3)C(=O)C(=O)N3CCCC[C@H]3C(=O)O2)CC[C@H]1O | 1.56 (≈ 1.51 µM) | 0.78 (≈ 0.753 µM) |  |  | 3.12 (≈ 3.01 µM) |  | 0.78 (≈ 0.753 µM) | 170 | ~100 (≈ 96.6 µM) | Weak | Weak | Weak | ~100 (≈ 96.6 µM) | 0.78 (≈ 0.753 µM)
8 | COC(=O)N(O)[C@@H]1C[C@@H]2CC[C@@H](C)[C@@](O)(O2)C(=O)C(=O)N2CCCC[C@H]2C(=O)O[C@H]([C@H](C)C[C@@H]2CC[C@@H](O)[C@H](OC)C2)CC(=O)[C@H](C)/C=C(\C)[C@@H](O)[C@@H](OC)C(=O)[C@H](C)C[C@H](C)/C=C/C=C/C=C/1C | 3.12 (≈ 3.21 µM) | 0.39 (≈ 0.401 µM) |  |  | 6.25 (≈ 6.42 µM) |  | 3.12 (≈ 3.21 µM) | 16 | ~100 (≈ 103 µM) | Weak | Weak | Weak | ~100 (≈ 103 µM) | 0.78 (≈ 0.801 µM)
9 | COC(=O)N(O)[C@H]1C[C@@H]2CC[C@@H](C)[C@@](O)(O2)C(=O)C(=O)N2CCCC[C@H]2C(=O)O[C@H]([C@H](C)C[C@@H]2CC[C@@H](O)[C@H](OC)C2)CC(=O)[C@H](C)/C=C(\C)[C@@H](O)[C@@H](OC)C(=O)[C@H](C)C[C@H](C)/C=C/C=C/C=C/1C | 25 (≈ 25.7 µM) | 1.56 (≈ 1.6 µM) |  |  | 50 (≈ 51.4 µM) |  | 25 (≈ 25.7 µM) | 1.47 | ~100 (≈ 103 µM) | Weak | Weak | Weak | ~100 (≈ 103 µM) | 1.56 (≈ 1.6 µM)
10 | CO[C@H]1C[C@@H]2CC[C@@H](C)[C@@](O)(O2)C(=O)C(=O)N2CCCC[C@H]2C(=O)O[C@H]([C@H](C)C[C@@H]2CC[C@@H](OC(=O)N3CCNCC3)[C@H](OC)C2)CC(=O)[C@H](C)/C=C(\C)[C@@H](O)[C@@H](OC)C(=O)[C@H](C)C[C@H](C)CCCC/C=C/1C | > 100 | > 100 | > 100 | > 100 | > 100 |  | > 100 |  |  |  |  |  |  | 
11 | CO[C@H]1C[C@@H]2CC[C@@H](C)[C@@](O)(O2)C(=O)C(=O)N2CCCC[C@H]2C(=O)O[C@H]([C@H](C)C[C@@H]2CC[C@H](n3cnnn3)[C@H](OC)C2)CC(=O)[C@H](C)/C=C(\C)[C@@H](O)[C@@H](OC)C(=O)[C@H](C)C[C@H](C)CCCC/C=C/1C | > 100 | > 100 | > 100 | > 100 | > 100 | > 100 | > 100 |  |  |  |  |  |  | 
12 | CO[C@@H]1C[C@H](C[C@@H](C)[C@@H]2CC(=O)[C@H](C)/C=C(\C)[C@@H](O)[C@@H](OC)C(=O)[C@H](C)C[C@H](C)/C=C/C=C/C=C(\C)[C@@H](N(O)C(=O)N3CCOCC3)C[C@@H]3CC[C@@H](C)[C@@](O)(O3)C(=O)C(=O)N3CCCC[C@H]3C(=O)O2)CC[C@H]1O | 25 (≈ 24.3 µM) | 6.25 (≈ 6.08 µM) |  |  | 50 (≈ 48.6 µM) |  | 25 (≈ 24.3 µM) | 1620 | ~100 (≈ 97.2 µM) | Weak | Weak | Weak | ~100 (≈ 97.2 µM) | 3.12 (≈ 3.03 µM)
13 | CO[C@@H]1C[C@H](C[C@@H](C)[C@@H]2CC(=O)[C@H](C)/C=C(\C)[C@@H](O)[C@@H](OC)C(=O)[C@H](C)C[C@H](C)/C=C/C=C/C=C(\C)[C@H](c3ccc(C)s3)C[C@@H]3CC[C@@H](C)[C@@](O)(O3)C(=O)C(=O)N3CCCC[C@H]3C(=O)O2)CC[C@H]1O | 3.12 (≈ 3.18 µM) | 1.56 (≈ 1.59 µM) |  |  | 12.5 (≈ 12.8 µM) |  | 1.56 (≈ 1.59 µM) | 221 | ~100 (≈ 102 µM) | Weak | Weak | Weak | ~100 (≈ 102 µM) | 0.78 (≈ 0.796 µM)
